In ChEMBL document CHEMBL3525933 (Drug Metab Dispos, 2012):

What was measured:
Format in all cases: ADME, organism-based
[1] = AUC(0 to infinity) in streptozotocin-induced diabetic Wistar rat at 400 mg/kg, po administered as single dose by HPLC-DAD analysis; set-up: time infinity, dose 400 mg/kg, route oral; conditions: plasma
[2] = Drug excretion in conventional Wistar rat feces assessed as unchanged drug level at 400 mg/kg, po administered as single dose by HPLC-DAD analysis; set-up: dose 400 mg/kg, route oral; conditions: in vivo
[3] = Cmax in conventional Wistar rat at 400 mg/kg, po administered as single dose by HPLC-DAD analysis; set-up: dose 400 mg/kg, route oral; conditions: in vivo
[4] = Drug excretion in conventional Wistar rat feces assessed as norathyriol metabolite level at 400 mg/kg, po administered as single dose by HPLC-DAD analysis; set-up: dose 400 mg/kg, route oral; conditions: in vivo
[5] = Elimination half life in pseudo-germ free Wistar rat at 400 mg/kg, po administered as single dose by HPLC-DAD analysis; set-up: dose 400 mg/kg, route oral; conditions: in vivo, read-out: beta t1/2 (converted)
[6] = test system: Plasma; assay: Drug metabolism in conventional Wistar rat plasma assessed as norathyriol metabolite formation at 400 mg/kg, po administered as single dose by HPLC-DAD analysis; set-up: dose 400 mg/kg, route oral; conditions: in vivo
[7] = test system: Plasma; assay: Drug metabolism in streptozotocin-induced diabetic Wistar rat plasma assessed as 1,7-dihydroxyxanthone metabolite formation at 400 mg/kg, po administered as single dose by HPLC-DAD analysis; set-up: dose 400 mg/kg, route oral; conditions: in vivo
[8] = Drug excretion in pseudo-germ free Wistar rat urine assessed as unchanged drug level at 400 mg/kg, po administered as single dose by HPLC-DAD analysis; set-up: dose 400 mg/kg, route oral; conditions: in vivo
[9] = Drug excretion in streptozotocin-induced diabetic Wistar rat feces assessed as norathyriol metabolite level at 400 mg/kg, po administered as single dose by HPLC-DAD analysis; set-up: dose 400 mg/kg, route oral; conditions: in vivo
[10] = MRT(0 to t) in streptozotocin-induced diabetic Wistar rat at 400 mg/kg, po administered as single dose by HPLC-DAD analysis; set-up: dose 400 mg/kg, route oral; conditions: in vivo
[11] = species: Rattus norvegicus; assay: Drug retention time in Wistar rat by HPLC-DAD analysis
[12] = MRT(0 to t) in pseudo-germ free Wistar rat at 400 mg/kg, po administered as single dose by HPLC-DAD analysis; set-up: dose 400 mg/kg, route oral; conditions: in vivo
[13] = AUC(0 to t) in pseudo-germ free Wistar rat at 400 mg/kg, po administered as single dose by HPLC-DAD analysis; set-up: dose 400 mg/kg, route oral; conditions: plasma
[14] = test system: Plasma; assay: Drug uptake in conventional Wistar rat plasma at 400 mg/kg, po administered as single dose by HPLC-DAD analysis; set-up: dose 400 mg/kg, route oral; conditions: in vivo
[15] = Apparent oral clearance in conventional Wistar rat at 400 mg/kg, po administered as single dose by HPLC-DAD analysis; set-up: dose 400 mg/kg, route oral; conditions: in vivo
[16] = MRT(0 to infinity) in streptozotocin-induced diabetic Wistar rat at 400 mg/kg, po administered as single dose by HPLC-DAD analysis; set-up: dose 400 mg/kg, route oral; conditions: in vivo
[17] = test system: Plasma; assay: Drug metabolism in streptozotocin-induced diabetic Wistar rat plasma assessed as norathyriol metabolite formation at 400 mg/kg, po administered as single dose by HPLC-DAD analysis; set-up: dose 400 mg/kg, route oral; conditions: in vivo
[18] = Drug excretion in pseudo-germ free Wistar rat feces assessed as norathyriol metabolite level at 400 mg/kg, po administered as single dose by HPLC-DAD analysis; set-up: dose 400 mg/kg, route oral; conditions: in vivo
[19] = Drug excretion in streptozotocin-induced diabetic Wistar rat urine assessed as unchanged drug level at 400 mg/kg, po administered as single dose by HPLC-DAD analysis; set-up: dose 400 mg/kg, route oral; conditions: in vivo
[20] = Drug excretion in streptozotocin-induced diabetic Wistar rat urine assessed as norathyriol metabolite level at 400 mg/kg, po administered as single dose by HPLC-DAD analysis; set-up: dose 400 mg/kg, route oral; conditions: in vivo
[21] = test system: Plasma; assay: Drug metabolism in pseudo-germ free Wistar rat plasma assessed as 1,7-dihydroxyxanthone metabolite formation at 400 mg/kg, po administered as single dose by HPLC-DAD analysis; set-up: dose 400 mg/kg, route oral; conditions: in vivo
[22] = Drug excretion in pseudo-germ free Wistar rat urine assessed as norathyriol metabolite level at 400 mg/kg, po administered as single dose by HPLC-DAD analysis; set-up: dose 400 mg/kg, route oral; conditions: in vivo
[23] = MRT(0 to infinity) in pseudo-germ free Wistar rat at 400 mg/kg, po administered as single dose by HPLC-DAD analysis; set-up: dose 400 mg/kg, route oral; conditions: in vivo
[24] = Drug excretion in streptozotocin-induced diabetic Wistar rat feces assessed as unchanged drug level at 400 mg/kg, po administered as single dose by HPLC-DAD analysis; set-up: dose 400 mg/kg, route oral; conditions: in vivo
[25] = Elimination half life in conventional Wistar rat at 400 mg/kg, po administered as single dose by HPLC-DAD analysis; set-up: dose 400 mg/kg, route oral; conditions: in vivo, read-out: beta t1/2 (converted)
[26] = Tmax in conventional Wistar rat at 400 mg/kg, po administered as single dose by HPLC-DAD analysis; set-up: dose 400 mg/kg, route oral; conditions: in vivo
[27] = Drug excretion in streptozotocin-induced diabetic Wistar rat feces assessed as 1,7-dihydroxyxanthone metabolite level at 400 mg/kg, po administered as single dose by HPLC-DAD analysis; set-up: dose 400 mg/kg, route oral; conditions: in vivo
[28] = AUC(0 to infinity) in conventional Wistar rat at 400 mg/kg, po administered as single dose by HPLC-DAD analysis; set-up: time infinity, dose 400 mg/kg, route oral; conditions: plasma
[29] = Drug excretion in conventional Wistar rat urine assessed as 1,7-dihydroxyxanthone metabolite level at 400 mg/kg, po administered as single dose by HPLC-DAD analysis; set-up: dose 400 mg/kg, route oral; conditions: in vivo

O=c1c2cc(O)c(O)cc2oc2cc(O)c([C@@H]3O[C@H](CO)[C@@H](O)[C@H](O)[C@H]3O)c(O)c12 [MANGIFERIN]
AUC(0-inf) [1]: 8950 ng·h/mL
Drug excretion [2]: metabolite_detected
Cmax [3]: 715 ng/mL
Drug excretion [4]: metabolite_detected
half-life [5]: 2.59 h
Drug metabolism [6]: metabolite_not_detected
Drug metabolism [7]: metabolite_not_detected
Drug excretion [8]: metabolite_detected
Drug excretion [9]: metabolite_detected
MRT last [10]: 5.4 h
Retention_time [11]: 15.2 min
MRT last [12]: 7.42 h
AUC(0-t) [13]: 4320 ng·h/mL
Drug uptake [14]: Active
CL/F [15]: 2030 mL/min/kg
MRT inf [16]: 5.45 h
Drug metabolism [17]: metabolite_not_detected
Drug excretion [18]: metabolite_not_detected
Drug excretion [19]: metabolite_detected
Drug excretion [20]: metabolite_detected
Drug metabolism [21]: metabolite_not_detected
Drug excretion [22]: metabolite_not_detected
MRT inf [23]: 7.52 h
Drug excretion [24]: metabolite_detected
half-life [25]: 2.47 h
Tmax [26]: 0.73 h
Drug excretion [27]: metabolite_not_detected
AUC(0-inf) [28]: 3820 ng·h/mL
Drug excretion [29]: metabolite_not_detected
